Laboratory results from the kinase profiling compilation of Christmann-Franck et al. (2016).

How the values were obtained:
Experiment in all cases: radiometric filter-binding kinase assay
[1] = molecular target: SYK (human) (UniProt P43405)
[2] = molecular target: TTK (human) (UniProt P33981)
[3] = molecular target: HIPK1 (human) (UniProt Q86Z02); conditions: compound 100.0 µM
[4] = molecular target: MAP3K1 (human) (UniProt Q13233); conditions: compound 100.0 µM
[5] = molecular target: AURKA (human) (UniProt O14965)
[6] = molecular target: IGF1R (human) (UniProt P08069)
[7] = system: AKT2 (human), P31751 [S474D]
[8] = molecular target: SRC (human) (UniProt P12931)
[9] = molecular target: CSNK1D (human) (UniProt P48730)
Chain of CSNK1D (human) (P48730 whole entry, looked up): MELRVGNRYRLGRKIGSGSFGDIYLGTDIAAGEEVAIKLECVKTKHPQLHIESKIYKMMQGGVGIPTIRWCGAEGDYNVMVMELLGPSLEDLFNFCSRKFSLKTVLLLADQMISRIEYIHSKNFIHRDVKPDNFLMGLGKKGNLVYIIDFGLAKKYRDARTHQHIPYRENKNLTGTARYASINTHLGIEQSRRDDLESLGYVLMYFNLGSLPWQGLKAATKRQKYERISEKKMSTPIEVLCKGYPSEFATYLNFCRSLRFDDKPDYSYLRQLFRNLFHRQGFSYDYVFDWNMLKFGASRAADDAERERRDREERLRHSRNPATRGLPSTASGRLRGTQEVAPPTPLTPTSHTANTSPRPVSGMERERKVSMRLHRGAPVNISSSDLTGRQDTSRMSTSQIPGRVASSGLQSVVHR

[10] = molecular target: FGFR1 (human) (UniProt P11362); conditions: compound 10.0 µM
[11] = molecular target: MAP3K5 (human) (UniProt Q99683)
Chain of MAP3K5 (human) (Q99683 whole entry, looked up): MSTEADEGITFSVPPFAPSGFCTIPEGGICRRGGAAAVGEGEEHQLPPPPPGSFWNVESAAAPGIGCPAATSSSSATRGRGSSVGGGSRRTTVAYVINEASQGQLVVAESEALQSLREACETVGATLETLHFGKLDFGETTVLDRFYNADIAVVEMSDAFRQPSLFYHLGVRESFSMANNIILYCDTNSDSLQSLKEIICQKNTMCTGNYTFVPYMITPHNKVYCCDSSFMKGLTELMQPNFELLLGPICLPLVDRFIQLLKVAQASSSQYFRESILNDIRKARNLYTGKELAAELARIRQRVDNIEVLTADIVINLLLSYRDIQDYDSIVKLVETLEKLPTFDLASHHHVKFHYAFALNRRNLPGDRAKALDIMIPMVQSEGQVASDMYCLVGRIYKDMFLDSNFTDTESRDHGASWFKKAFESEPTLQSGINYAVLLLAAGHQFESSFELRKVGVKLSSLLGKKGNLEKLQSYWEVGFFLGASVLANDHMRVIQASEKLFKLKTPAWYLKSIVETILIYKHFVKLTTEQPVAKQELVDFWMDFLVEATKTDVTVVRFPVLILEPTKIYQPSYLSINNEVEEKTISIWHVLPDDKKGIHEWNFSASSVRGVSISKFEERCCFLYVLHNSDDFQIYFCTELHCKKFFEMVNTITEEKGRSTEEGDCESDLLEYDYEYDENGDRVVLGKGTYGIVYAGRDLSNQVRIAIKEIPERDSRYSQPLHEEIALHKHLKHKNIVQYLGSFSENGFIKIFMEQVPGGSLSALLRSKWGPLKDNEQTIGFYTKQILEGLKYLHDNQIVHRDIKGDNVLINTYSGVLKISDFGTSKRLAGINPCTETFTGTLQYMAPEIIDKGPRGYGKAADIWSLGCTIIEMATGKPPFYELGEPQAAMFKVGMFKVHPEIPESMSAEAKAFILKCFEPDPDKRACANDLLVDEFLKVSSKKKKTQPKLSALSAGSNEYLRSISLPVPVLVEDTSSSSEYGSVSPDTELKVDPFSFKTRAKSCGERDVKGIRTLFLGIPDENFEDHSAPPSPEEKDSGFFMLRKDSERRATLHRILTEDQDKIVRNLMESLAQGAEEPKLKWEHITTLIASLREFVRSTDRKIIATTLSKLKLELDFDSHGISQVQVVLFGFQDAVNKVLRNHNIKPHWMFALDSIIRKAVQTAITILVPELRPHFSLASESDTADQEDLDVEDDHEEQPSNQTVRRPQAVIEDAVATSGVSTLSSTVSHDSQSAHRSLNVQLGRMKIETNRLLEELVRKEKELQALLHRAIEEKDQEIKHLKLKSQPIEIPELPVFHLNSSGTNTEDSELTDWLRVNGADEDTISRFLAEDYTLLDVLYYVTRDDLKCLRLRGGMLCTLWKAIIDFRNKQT

[12] = molecular target: MARK4 (human) (UniProt Q96L34)
[13] = molecular target: HIPK2 (human) (UniProt Q9H2X6)
[14] = molecular target: MAPK13 (human) (UniProt O15264)
[15] = molecular target: MAP3K9 (human) (UniProt P80192)
Chain of MAP3K9 (human) (P80192 whole entry, looked up): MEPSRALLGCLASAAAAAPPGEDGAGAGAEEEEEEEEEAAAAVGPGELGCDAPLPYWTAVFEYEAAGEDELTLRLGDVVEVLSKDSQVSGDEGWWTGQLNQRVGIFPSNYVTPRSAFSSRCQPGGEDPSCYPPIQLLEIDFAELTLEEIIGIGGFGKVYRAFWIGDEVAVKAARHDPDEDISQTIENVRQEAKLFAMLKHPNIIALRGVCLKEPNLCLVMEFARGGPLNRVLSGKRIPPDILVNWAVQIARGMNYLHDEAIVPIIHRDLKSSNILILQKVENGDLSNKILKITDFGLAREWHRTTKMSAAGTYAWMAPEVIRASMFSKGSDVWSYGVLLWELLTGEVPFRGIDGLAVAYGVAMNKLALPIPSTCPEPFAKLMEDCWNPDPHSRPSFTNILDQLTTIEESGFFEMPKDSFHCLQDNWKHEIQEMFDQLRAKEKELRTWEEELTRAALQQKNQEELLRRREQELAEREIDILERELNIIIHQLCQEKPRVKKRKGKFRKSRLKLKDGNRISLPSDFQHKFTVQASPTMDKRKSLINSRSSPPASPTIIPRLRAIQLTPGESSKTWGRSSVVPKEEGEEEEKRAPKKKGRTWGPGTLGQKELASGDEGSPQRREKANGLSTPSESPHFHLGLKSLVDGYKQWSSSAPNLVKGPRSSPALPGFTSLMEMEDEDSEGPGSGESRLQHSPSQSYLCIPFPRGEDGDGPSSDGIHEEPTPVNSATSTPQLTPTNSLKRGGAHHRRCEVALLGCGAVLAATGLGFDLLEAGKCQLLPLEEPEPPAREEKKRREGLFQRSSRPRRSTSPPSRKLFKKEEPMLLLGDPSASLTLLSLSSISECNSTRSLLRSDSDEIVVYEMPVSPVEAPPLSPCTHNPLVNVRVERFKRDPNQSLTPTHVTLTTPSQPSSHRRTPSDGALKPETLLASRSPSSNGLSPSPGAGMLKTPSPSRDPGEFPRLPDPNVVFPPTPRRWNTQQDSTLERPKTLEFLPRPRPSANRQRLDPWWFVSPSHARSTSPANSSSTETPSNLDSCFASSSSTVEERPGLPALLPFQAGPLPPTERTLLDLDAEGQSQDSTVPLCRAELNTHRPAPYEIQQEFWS

[16] = molecular target: MAPK10 (human) (UniProt P53779)
[17] = molecular target: EPHB4 (human) (UniProt P54760); conditions: compound 100.0 µM
[18] = molecular target: MYLK (human) (UniProt Q15746)
[19] = molecular target: MAPK9 (human) (UniProt P45984)
[20] = molecular target: STK11 CAB39 STRADA (human) (UniProt Q9Y376+Q7RTN6+Q15831)
[21] = molecular target: AURKB (human) (UniProt Q96GD4)
Chain of AURKB (human) (Q96GD4 whole entry, looked up): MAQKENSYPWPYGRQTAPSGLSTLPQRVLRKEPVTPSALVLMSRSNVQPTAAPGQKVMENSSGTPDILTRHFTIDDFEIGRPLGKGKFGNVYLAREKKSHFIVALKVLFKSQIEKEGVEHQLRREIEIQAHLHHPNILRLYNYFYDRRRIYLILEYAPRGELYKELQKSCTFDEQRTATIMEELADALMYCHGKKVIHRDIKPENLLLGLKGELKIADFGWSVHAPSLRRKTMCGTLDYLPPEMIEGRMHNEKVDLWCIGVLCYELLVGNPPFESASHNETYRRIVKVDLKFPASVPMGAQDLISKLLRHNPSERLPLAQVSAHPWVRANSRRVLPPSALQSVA

[22] = molecular target: TAOK1 (human) (UniProt Q7L7X3)
[23] = molecular target: MAP2K2 (human) (UniProt P36507)
[24] = molecular target: PKN2 (human) (UniProt Q16513)
[25] = molecular target: GSK3B (human) (UniProt P49841)
[26] = molecular target: EEF2K (human) (UniProt O00418)
[27] = molecular target: MELK (human) (UniProt Q14680)
[28] = molecular target: FLT1 (human) (UniProt P17948)
[29] = molecular target: PRKCZ (human) (UniProt Q05513)
[30] = molecular target: EPHB1 (human) (UniProt P54762)
[31] = molecular target: GCK (human) (UniProt Q12851); conditions: compound 100.0 µM
[32] = molecular target: MAPK1 (human) (UniProt P28482)
[33] = molecular target: YES1 (human) (UniProt P07947)
[34] = molecular target: CHEK1 (human) (UniProt O14757)
[35] = system: PAK2 (human), Q13177 [T402E]
[36] = molecular target: PAK6 (human) (UniProt Q9NQU5)
Chain of PAK6 (human) (Q9NQU5 whole entry, looked up): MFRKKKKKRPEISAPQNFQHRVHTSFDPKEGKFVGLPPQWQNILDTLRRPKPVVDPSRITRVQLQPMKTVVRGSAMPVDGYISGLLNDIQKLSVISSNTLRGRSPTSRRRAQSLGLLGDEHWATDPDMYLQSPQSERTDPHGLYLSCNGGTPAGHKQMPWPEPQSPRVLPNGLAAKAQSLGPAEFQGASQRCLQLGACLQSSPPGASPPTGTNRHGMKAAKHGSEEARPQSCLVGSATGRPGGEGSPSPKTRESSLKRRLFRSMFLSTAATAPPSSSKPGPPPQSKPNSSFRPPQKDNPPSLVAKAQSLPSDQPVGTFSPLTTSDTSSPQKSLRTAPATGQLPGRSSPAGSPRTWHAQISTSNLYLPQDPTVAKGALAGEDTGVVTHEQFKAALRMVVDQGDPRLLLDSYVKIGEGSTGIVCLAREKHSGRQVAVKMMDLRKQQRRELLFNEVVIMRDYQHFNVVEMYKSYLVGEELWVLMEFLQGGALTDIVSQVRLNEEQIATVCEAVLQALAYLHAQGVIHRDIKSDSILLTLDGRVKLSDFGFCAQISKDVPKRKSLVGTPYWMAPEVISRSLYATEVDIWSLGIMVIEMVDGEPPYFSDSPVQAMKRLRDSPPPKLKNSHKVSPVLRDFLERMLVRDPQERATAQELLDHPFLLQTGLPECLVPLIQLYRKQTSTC

Chain of TTK (human) (P33981 whole entry, looked up): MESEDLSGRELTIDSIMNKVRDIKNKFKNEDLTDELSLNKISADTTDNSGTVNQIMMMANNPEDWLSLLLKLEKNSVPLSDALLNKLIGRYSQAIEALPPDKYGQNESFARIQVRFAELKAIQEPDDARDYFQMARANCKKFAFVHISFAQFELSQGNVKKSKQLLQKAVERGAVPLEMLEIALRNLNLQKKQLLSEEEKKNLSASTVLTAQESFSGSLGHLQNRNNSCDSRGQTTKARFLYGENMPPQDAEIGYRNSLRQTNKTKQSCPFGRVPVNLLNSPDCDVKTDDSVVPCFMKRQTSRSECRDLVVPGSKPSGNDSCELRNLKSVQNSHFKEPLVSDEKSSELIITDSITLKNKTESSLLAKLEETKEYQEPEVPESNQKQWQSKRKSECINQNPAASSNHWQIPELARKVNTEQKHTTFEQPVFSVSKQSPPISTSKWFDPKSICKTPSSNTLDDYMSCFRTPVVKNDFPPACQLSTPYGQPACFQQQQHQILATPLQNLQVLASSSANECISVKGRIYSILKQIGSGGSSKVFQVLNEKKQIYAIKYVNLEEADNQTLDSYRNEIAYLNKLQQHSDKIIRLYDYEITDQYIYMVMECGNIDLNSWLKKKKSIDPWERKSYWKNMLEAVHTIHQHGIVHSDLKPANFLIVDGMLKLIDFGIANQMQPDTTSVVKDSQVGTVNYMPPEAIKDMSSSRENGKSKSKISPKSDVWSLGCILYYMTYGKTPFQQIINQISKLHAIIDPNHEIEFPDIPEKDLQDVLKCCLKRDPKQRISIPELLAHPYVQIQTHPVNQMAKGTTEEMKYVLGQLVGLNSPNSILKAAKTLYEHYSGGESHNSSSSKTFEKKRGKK

## COC(=O)/C=C/C(=O)OC
[1]; compound 10.0 µM
  residual activity: 106%
[1]; compound 100.0 µM
  residual activity: 118%
[1]; compound 1000.0 µM
  residual activity: 116%
[2]; compound 10.0 µM
  residual activity: 98%
[2]; compound 100.0 µM
  residual activity: 93%
[2]; compound 1000.0 µM
  residual activity: 93%
[3]
  residual activity: 95%
[4]
  residual activity: 95%
[5]; compound 10.0 µM
  residual activity: 117%
[5]; compound 100.0 µM
  residual activity: 120%
[5]; compound 1000.0 µM
  residual activity: 114%
[6]; compound 100.0 µM
  residual activity: 92%
[6]; compound 1000.0 µM
  residual activity: 117%
[7]; compound 10.0 µM
  residual activity: 81%
[7]; compound 100.0 µM
  residual activity: 93%
[7]; compound 1000.0 µM
  residual activity: 106%
[8]; compound 100.0 µM
  residual activity: 104%
[8]; compound 1000.0 µM
  residual activity: 103%
[9]; compound 10.0 µM
  residual activity: 88%
[9]; compound 100.0 µM
  residual activity: 94%
[9]; compound 1000.0 µM
  residual activity: 105%
[10]
  residual activity: 85%
[11]; compound 10.0 µM
  residual activity: 93%
[11]; compound 100.0 µM
  residual activity: 88%
[11]; compound 1000.0 µM
  residual activity: 105%
[12]; compound 100.0 µM
  residual activity: 92%
[12]; compound 1000.0 µM
  residual activity: 96%
[13]; compound 10.0 µM
  residual activity: 98%
[13]; compound 100.0 µM
  residual activity: 101%
[13]; compound 1000.0 µM
  residual activity: 94%
[14]; compound 10.0 µM
  residual activity: 92%
[14]; compound 100.0 µM
  residual activity: 102%
[15]; compound 10.0 µM
  residual activity: 87%
[15]; compound 100.0 µM
  residual activity: 112%
[15]; compound 1000.0 µM
  residual activity: 135%
[16]; compound 10.0 µM
  residual activity: 103%
[16]; compound 100.0 µM
  residual activity: 103%
[16]; compound 1000.0 µM
  residual activity: 100%
[17]
  residual activity: 122%
[18]; compound 100.0 µM
  residual activity: 99%
[18]; compound 1000.0 µM
  residual activity: 102%
[19]; compound 10.0 µM
  residual activity: 90%
[19]; compound 100.0 µM
  residual activity: 94%
[19]; compound 1000.0 µM
  residual activity: 101%
[20]; compound 10.0 µM
  residual activity: 93%
[20]; compound 100.0 µM
  residual activity: 97%
[20]; compound 1000.0 µM
  residual activity: 100%
[21]; compound 10.0 µM
  residual activity: 90%
[21]; compound 100.0 µM
  residual activity: 102%
[21]; compound 1000.0 µM
  residual activity: 98%
[22]; compound 10.0 µM
  residual activity: 91%
[22]; compound 100.0 µM
  residual activity: 109%
[22]; compound 1000.0 µM
  residual activity: 123%
[23]; compound 10.0 µM
  residual activity: 105%
[23]; compound 100.0 µM
  residual activity: 101%
[24]; compound 100.0 µM
  residual activity: 108%
[24]; compound 1000.0 µM
  residual activity: 84%
[25]; compound 10.0 µM
  residual activity: 92%
[25]; compound 1000.0 µM
  residual activity: 108%
[26]; compound 100.0 µM
  residual activity: 106%
[26]; compound 1000.0 µM
  residual activity: 111%
[27]; compound 10.0 µM
  residual activity: 93%
[27]; compound 100.0 µM
  residual activity: 103%
[28]; compound 10.0 µM
  residual activity: 108%
[28]; compound 100.0 µM
  residual activity: 110%
[28]; compound 1000.0 µM
  residual activity: 98%
[29]; compound 10.0 µM
  residual activity: 89%
[29]; compound 100.0 µM
  residual activity: 103%
[30]; compound 10.0 µM
  residual activity: 101%
[30]; compound 100.0 µM
  residual activity: 103%
[30]; compound 1000.0 µM
  residual activity: 104%
[31]
  residual activity: 107%
[32]; compound 10.0 µM
  residual activity: 85%
[32]; compound 1000.0 µM
  residual activity: 105%
[33]; compound 10.0 µM
  residual activity: 114%
[33]; compound 100.0 µM
  residual activity: 116%
[33]; compound 1000.0 µM
  residual activity: 118%
[34]; compound 100.0 µM
  residual activity: 93%
[34]; compound 1000.0 µM
  residual activity: 97%
[35]; compound 10.0 µM
  residual activity: 101%
[35]; compound 100.0 µM
  residual activity: 104%
[35]; compound 1000.0 µM
  residual activity: 86%
[36]; compound 10.0 µM
  residual activity: 90%
[36]; compound 100.0 µM
  residual activity: 98%
[36]; compound 1000.0 µM
  residual activity: 103%
